Measurements reported in patent US9388419B2 (The Regents of the University of Colorado, a body corporate, priority 2009, dated 2016).
Like-named read-outs stand apart in the source and are kept apart here.

Experiments:
[1] = system: strain BX3_0194; test: 3-HP production by BX3_0194 at 100-mL scale in SM3 medium, without or with 10 μg/ml cerulenin; format: cell-based, E. coli
Protocol: Cultures were started from freezer stocks by standard practice (Sambrook and Russell, 2001) into 50 mL of LB media plus 100 μg/mL ampicillin and grown to stationary phase overnight at 37° C. with rotation at 225 rpm. Five ml of this culture were transferred to 100 ml of SM3 media plus 40 g/L glucose, 100 μg/ml ampicillin, and 1 mM IPTG in triplicate 250-ml baffled flasks and incubated at 37° C., 225 rpm. […] Dry cell weight (DCW) is calculated as 0.33 times the measured OD600 value, based on baseline DCW to OD600 determinations. All data are the average of triplicate cultures.

[2] = system: Yeast strains (S288C background); format: cell-based, Saccharomyces cerevisiae; details: anaerobic; for Average MIC Assay Result (g/L 3-HP): MIC of 3-HP for yeast S288C in SD media with the named supplement(s); for % Increase Over Control: increase of 3-HP MIC over S288C in SD without supplement
Protocol: The minimum inhibitory concentration (MIC) was determined anaerobically in a 96 well-plate format. […] A 1% (v/v) inoculum was introduced into a 5 ml culture of SD minimal media without vitamins. After the cells reached mid-exponential phase, the culture was diluted to an OD600 of 0.200. The cells were further diluted 1:5 and a 10 μL aliquot was used to inoculate each well of a 96 well plate (˜10^4 cells per well) to total volume of 100 uL. […] Plates were incubated for 72 hours at 30 C. […] Plates were sealed in biobag anaerobic chambers that contained gas generators for anaerobic conditions and incubated for 72 hours at 30 C.

[3] = system: E. coli; format: cell-based, Escherichia coli; details: strain BW25113, M9 media with the named supplement(s), aerobic; MIC of 3-HP versus M9 control without supplement
Protocol: (§1) For MIC evaluations, the final results are expressed in chemical agent concentrations determined by analysis of the stock solution by HPLC (i.e., see Subsection Mb).
(§2) The minimum inhibitory concentration (MIC) was determined aerobically in a 96 well-plate format. […] Media supplements were added according to levels reported in the Supplements Table, where specified. Overnight cultures of strains were grown in triplicate in 5 mL LB (with antibiotic where appropriate). A 1% (v/v) inoculum was introduced into a 5 ml culture of M9 minimal media.

[4] = system: Yeast strains (S288C background); format: cell-based, Saccharomyces cerevisiae; details: aerobic; for % Increase Over Control: increase of 3-HP MIC over S288C in SD without supplement; for Average MIC Assay Result (g/L 3-HP): MIC of 3-HP for yeast S288C in SD media with the named supplement(s)
Protocol: The minimum inhibitory concentration (MIC) was determined aerobically in a 96 well-plate format. […] Media supplements were added according to levels reported in the Supplements Table, where specified. Overnight cultures of strains were grown in triplicate in 5 mL SD media with vitamins (Methods in Enzymology vol. 350, page 17 (2002)). A 1% (v/v) inoculum was introduced into a 5 ml culture of SD minimal media without vitamins. After the cells reached mid-exponential phase, the culture was diluted to an OD600 of 0.200. The cells were further diluted 1:5 and a 10 μL aliquot was used to inoculate each well of a 96 well plate (˜10^4 cells per well) to total volume of 100 uL. […] Plates were incubated for 72 hours at 30 C.

[5] = system: E. coli Mach1-T1; test: Minimum inhibitory concentration (MIC) of 3-HP, microaerobic, 96 well-plate, MOPS minimal media; format: cell-based, Escherichia coli; details: E. coli Mach1-T1, MOPS minimal media with the supplement at its optimal concentration vs unsupplemented, microaerobic, 24 hours
Protocol: Overnight cultures of strains were grown in 5 ml LB (with antibiotic where appropriate). A 1 v/v % was used to inoculate a 15 ml conical tube filled to the top with MOPS minimal media and capped. After the cells reached mid exponential phase, the culture was diluted to an OD600 of 0.200. The cells were further diluted 1:20 and a 10 ul aliquot was used to inoculate each well (˜10^4 cells per well).
The minimum inhibitory concentration (MIC) was determined microaerobically in a 96 well-plate format. Overnight cultures of strains were grown in 5 mL LB (with antibiotic where appropriate). A 1% (v/v) inoculum was introduced into a 15 ml culture of MOPS minimal media. After the cells reached mid-exponential phase, the culture was diluted to an OD600 of 0.200. The cells were further diluted 1:20 and a 10 μL aliquot was used to inoculate each well of a 96 well plate (˜10^4 cells per well).

[6] = system: E. coli; format: cell-based, Escherichia coli; details: anaerobic; for % Increase Over Control: increase of 3-HP MIC over BW25113 in M9 without supplement; for MIC Assay Result (g/L 3-HP): MIC of 3-HP for E. coli BW25113 in M9 media with the named supplement(s), 24-hour
Protocol: as §1
as §2, with “anaerobically” for “aerobically”

[7] = system: B. subtilis; test: MIC protocol B. subtilis aerobic (Common Methods, M9 media + glutamate, 24 hours); format: cell-based, Bacillus subtilis; details: for Avg 24 hr ΔOD600: B. subtilis 168 in M9 + glu + trp with the named supplement(s), 3HP tolerance; for % Increase Over Control: increase of 24 hr ΔOD600 over B. subtilis 168 without supplement
Protocol: as §1
as §2, with “Table” for “Table,”, “media+glutamate.” for “media.”

[8] = system: E. coli K12; format: cell-based, Escherichia coli; details: E. coli K12, M9 minimal media supplemented with the substance (polyamines 0.1 g/L, sodium bicarbonate 20 mM), aerobic, 24 hours
Protocol: Overnight cultures of strains were grown in 5 ml LB (with antibiotic where appropriate) at 37° C. in a shaking incubator. A 1 v/v % was used to inoculate 10 mL of M9 minimal media. After the cells reached mid-exponential phase, the culture was diluted to an OD600 of 0.200. The cells were further diluted 1:20 and a 10 ul aliquot was used to inoculate each well (˜10^4 cells per well). […] The MIC endpoint is the lowest concentration of compound at which there was no visible growth.

| Compound | % Increase Over Control [2] [%] | % Increase Over Control [3] [%] | MIC increase (3-HP) resulting from supplementation [5] [%] | other results |
| --- | --- | --- | --- | --- |
| C/C=C/C/C=C/CCC(=O)[C@H]1O[C@H]1C(N)=O [cerulenin] |  |  |  | 3HP ([1]; 4 hr): 0.003 g/L; 3HP ([1]; 6 hr): 0.14 g/L; 3HP ([1]; 8 hr): 0.43 g/L; 3HP ([1]; 24 hr): 1.43 g/L |
| O=C(O)O [Bicarbonate (C)] | 140 | 59 |  | Average MIC Assay Result (g/L 3-HP) [2]: 90 g/L |
| N[C@@H](Cc1c[nH]c2ccccc12)C(=O)O [Tryptophan (A)] | 47 |  |  | % Increase Over Control [4]: 20% |
| N[C@@H](Cc1ccccc1)C(=O)O [Phenylalanine (A)] | 2 | 17 |  |  |
| Cc1ncc(CO)c(CO)c1O.Cl [pyridoxine hydrochloride] |  |  | 0 |  |
| N[C@@H](Cc1ccccc1)C(=O)O [phenylalanine] |  |  | 33 |  |
| N[C@@H](CO)C(=O)O [Serine (B)] | 20 | 17 |  | Average MIC Assay Result (g/L 3-HP) [2]: 45 g/L; % Increase Over Control [6]: 7% |
| NC(CCS)C(=O)O (stereo not drawn) [Homocysteine (B)] | 7 | 9 |  | Average MIC Assay Result (g/L 3-HP) [2]: 40 g/L |
| CC[C@H](C)[C@H](N)C(=O)O [Isoleucine (B)] | 2 | 17 |  | Average MIC Assay Result (g/L 3-HP) [2]: 38 g/L |
| NCCCCCN [Cadaverine (C)] | 60 |  |  |  |
| O=C(O)CC(O)(CC(=O)O)C(=O)O [Citrate] |  |  |  | Avg 24 hr ΔOD600 [7]: 0.30 |
| CCC(=O)C(=O)O [oxobutanoate] |  |  | 7 |  |
| NNC(=O)c1ccc(O)cc1 [p-hydroxybenzoic acid hydrazide] |  |  | 33 |  |
| C[C@@H](O)[C@H](N)C(=O)O [threonine] |  |  | 3 |  |
| Nc1ccc(C(=O)O)cc1 [p-aminobenzoic acid] |  |  | 7 | Avg 24 hr ΔOD600 [7]: 0.07; % Increase Over Control [7]: 89% |
| NC(=O)CC[C@H](N)C(=O)O [Glutamine(C)] |  | 9 |  |  |
| O=C(O)C1=C[C@@H](O)[C@@H](O)[C@H](O)C1 [Shikimate (A)] | 60 | 3 |  | Average MIC Assay Result (g/L 3-HP) [2]: 60 g/L; Average MIC Assay Result (g/L 3-HP) [4]: 80 g/L; % Increase Over Control [4]: 78% |

| Compound | % Increase Over Control [2] [%] | % Increase Over Control [3] [%] | MIC increase (3-HP) resulting from supplementation [5] [%] | other results |
| --- | --- | --- | --- | --- |
| NC(=O)NCCC[C@H](N)C(=O)O [Citrulline (C)] |  | 9 |  | Average MIC Assay Result (g/L 3-HP) [2]: 97 g/L; Average MIC Assay Result (g/L 3-HP) [4]: 58 g/L; % Increase Over Control [4]: 28% |
| NCCCC[C@H](N)C(=O)O [Lysine (D)] | 20 | 33 |  | Average MIC Assay Result (g/L 3-HP) [2]: 45 g/L; % Increase Over Control [6]: 39% |
| N[C@@H](Cc1c[nH]c2ccccc12)C(=O)O [tryptophan] |  |  | 33 |  |
| C[C@@H](O)[C@H](N)C(=O)O [Threonine (B)] | 2 |  |  |  |
| O=C(O)c1cccc(O)c1O [2,3-didyroxybenzoic acid, 2,3-dihydroxybenzoic acid] |  |  | 33 |  |
| Cl.NC1CCSC1=O (stereo not drawn) [homocysteine thiolactone hydrochloride] |  |  | 60 |  |
| NCC(=O)O [Glycine (B)] | 60 |  |  | Average MIC Assay Result (g/L 3-HP) [2]: 60 g/L; Average MIC Assay Result (g/L 3-HP) [4]: 50 g/L; % Increase Over Control [4]: 11% |
| NCCC[C@H](N)C(=O)O [Ornithine(C)] |  | 9 |  |  |
| CCC(=O)C(=O)O [2-oxobutyrate (B)] | 2 |  |  | Average MIC Assay Result (g/L 3-HP) [2]: 38 g/L; Average MIC Assay Result (g/L 3-HP) [4]: 50 g/L; % Increase Over Control [4]: 11% |
| Nc1ccc(C(=O)O)cc1 [p-aminobenzoate (A)] |  | 27 |  | MIC Assay Result (g/L 3-HP) [6]: 40.0 g/L; % Increase Over Control [6]: 33% |
| CSCC[C@H](N)C(=O)O [Methionine] |  |  |  | Avg 24 hr ΔOD600 [7]: 0.15 |
| O=C([O-])O.[Na+] [sodium bicarbonate] |  |  |  | Minimum inhibitory concentration (MIC) of 3-HP in supplemented media [8]: 30 mg/mL; Avg 24 hr ΔOD600 [7]: 0.06; % Increase Over Control [7]: 56% |
| N[C@@H](CCO)C(=O)O [homoserine] |  |  | 33 |  |
| NCCCCNCCCN [Spermidine (C)] | 60 |  |  |  |
| N[C@@H](CC(=O)O)C(=O)O [Aspartate] |  |  |  | % Increase Over Control [4]: 26% |
| Nc1nc(=O)c2c([nH]1)NC[C@@H](CNc1ccc(C(=O)N[C@@H](CCC(=O)O)C(=O)O)cc1)N2 [Tetrahydrofolate (A)] |  | 9 |  | MIC Assay Result (g/L 3-HP) [6]: 40.0 g/L; % Increase Over Control [6]: 33% |
| N[C@@H](Cc1ccc(O)cc1)C(=O)O [tyrosine] |  |  | 40 |  |
